Assay [1] has as its target T1, Nuclear receptor subfamily 2 group C member 1 (Homo sapiens) (UniProt P13056).
T1 sequence (whole entry): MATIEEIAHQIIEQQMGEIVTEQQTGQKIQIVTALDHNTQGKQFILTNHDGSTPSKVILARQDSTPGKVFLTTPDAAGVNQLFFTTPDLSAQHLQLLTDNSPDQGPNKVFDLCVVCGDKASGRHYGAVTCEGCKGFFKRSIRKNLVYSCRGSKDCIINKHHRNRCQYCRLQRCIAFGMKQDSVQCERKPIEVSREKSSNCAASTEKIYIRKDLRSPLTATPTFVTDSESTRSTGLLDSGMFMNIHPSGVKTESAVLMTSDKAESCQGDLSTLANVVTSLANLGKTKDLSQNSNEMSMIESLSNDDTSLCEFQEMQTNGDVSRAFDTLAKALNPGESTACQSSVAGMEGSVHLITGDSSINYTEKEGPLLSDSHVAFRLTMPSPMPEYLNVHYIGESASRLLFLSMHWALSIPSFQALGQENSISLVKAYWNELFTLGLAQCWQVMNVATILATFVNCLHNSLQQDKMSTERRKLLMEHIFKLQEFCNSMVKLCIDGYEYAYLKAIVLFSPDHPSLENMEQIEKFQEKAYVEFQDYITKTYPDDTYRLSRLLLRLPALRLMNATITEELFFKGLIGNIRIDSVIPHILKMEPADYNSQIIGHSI
As to the kind of experiment: Selectivity interaction (Reporter gene assay) EUB0002359a NR2C1. More on the design: recommended concentration 1 uM. For orientation: A reporter such as luciferase makes a cellular process visible.

Assay [2] deals with T2, Alpha trans-inducing protein (Human alphaherpesvirus 1) (UniProt A0A5J6DW59). As to the kind of experiment: Selectivity interaction (Reporter gene assay) EUB0002359a UL48. More on the design: recommended concentration 1 uM.
Assay [3] addresses T3, Retinoic acid receptor RXR-alpha (Homo sapiens) (UniProt P19793).
T3 sequence (whole entry): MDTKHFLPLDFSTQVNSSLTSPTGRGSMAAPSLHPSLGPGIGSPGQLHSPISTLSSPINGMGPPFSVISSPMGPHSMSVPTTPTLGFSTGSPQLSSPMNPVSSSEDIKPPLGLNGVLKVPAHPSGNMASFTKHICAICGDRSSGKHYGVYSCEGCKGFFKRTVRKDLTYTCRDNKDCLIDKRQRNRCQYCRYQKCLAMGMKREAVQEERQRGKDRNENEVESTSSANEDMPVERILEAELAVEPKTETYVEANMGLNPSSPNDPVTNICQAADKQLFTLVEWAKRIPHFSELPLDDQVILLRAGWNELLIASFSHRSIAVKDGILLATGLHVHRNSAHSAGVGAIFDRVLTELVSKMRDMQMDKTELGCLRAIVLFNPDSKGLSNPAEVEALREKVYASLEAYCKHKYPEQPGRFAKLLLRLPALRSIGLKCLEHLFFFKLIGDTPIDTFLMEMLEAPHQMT
As to the kind of experiment: Selectivity interaction (Reporter gene assay) EUB0002359a RXRA. More on the design: recommended concentration 1 uM. The following applies: reference bexarotene 1 uM, Selectivity number of off-targets 0.0, Selectivity number of targets 1.0, Source Knowledge inhouse.

Assay [4] deals with T4, Hepatocyte nuclear factor 4-alpha (Homo sapiens) (UniProt P41235).
T4 sequence (whole entry): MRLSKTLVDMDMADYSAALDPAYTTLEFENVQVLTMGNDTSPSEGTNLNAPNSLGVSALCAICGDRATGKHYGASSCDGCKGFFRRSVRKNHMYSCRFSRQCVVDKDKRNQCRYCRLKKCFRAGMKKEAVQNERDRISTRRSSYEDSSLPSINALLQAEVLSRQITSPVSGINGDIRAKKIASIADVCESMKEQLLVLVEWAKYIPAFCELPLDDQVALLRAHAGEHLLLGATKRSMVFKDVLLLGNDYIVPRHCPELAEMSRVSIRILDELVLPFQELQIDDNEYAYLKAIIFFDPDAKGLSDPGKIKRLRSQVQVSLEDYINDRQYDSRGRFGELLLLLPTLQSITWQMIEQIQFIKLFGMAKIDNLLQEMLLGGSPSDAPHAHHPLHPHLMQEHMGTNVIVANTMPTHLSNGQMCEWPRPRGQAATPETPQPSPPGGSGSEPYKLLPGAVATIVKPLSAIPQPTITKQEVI
Kind of assay: Selectivity interaction (Reporter gene assay) EUB0002359a HNF4A. More on the design: recommended concentration 1 uM.

In assay [5] the target is Nuclear receptor subfamily 4immunitygroup A member 1 (Homo sapiens) (UniProt P22736). Kind of assay: Selectivity interaction (Reporter gene assay) EUB0002359a NR4A1. More on the design: recommended concentration 1 uM.
Assay [6] has as its target Nuclear receptor subfamily 2 group E member 1 (Homo sapiens) (UniProt Q9Y466). As to the kind of experiment: Selectivity interaction (Reporter gene assay) EUB0002359a NR2E1. More on the design: recommended concentration 1 uM.
Assay [7] deals with Steroidogenic factor 1 (Homo sapiens) (UniProt Q13285). Kind of assay: Selectivity interaction (Reporter gene assay) EUB0002359a NR5A1. More on the design: recommended concentration 1 uM.
Assay [8] deals with Nuclear receptor subfamily 2 group E member 1 (Homo sapiens) (UniProt Q9Y466). Kind of assay: Selectivity interaction (Reporter gene assay) EUB0002358a NR2E1. More on the design: recommended concentration 10 uM.
The target in assay [9] is T1, Nuclear receptor subfamily 2 group C member 1 (Homo sapiens). Kind of assay: Selectivity interaction (Reporter gene assay) EUB0002358a NR2C1. More on the design: recommended concentration 10 uM.
The target of assay [10] is Steroidogenic factor 1 (Homo sapiens) (UniProt Q13285). As to the kind of experiment: Selectivity interaction (Reporter gene assay) EUB0002358a NR5A1. More on the design: recommended concentration 10 uM.
The target of assay [11] is T3, Retinoic acid receptor RXR-alpha (Homo sapiens). As to the kind of experiment: Selectivity interaction (Reporter gene assay) EUB0002358a RXRA. More on the design: recommended concentration 10 uM. The note with it: reference bexarotene 1 uM, Selectivity number of off-targets 0.0, Selectivity number of targets 1.0, Source Knowledge inhouse.
In assay [12] the target is T4, Hepatocyte nuclear factor 4-alpha (Homo sapiens). As to the kind of experiment: Selectivity interaction (Reporter gene assay) EUB0002358a HNF4A. More on the design: recommended concentration 10 uM.
In assay [13] the target is Nuclear receptor subfamily 4immunitygroup A member 1 (Homo sapiens) (UniProt P22736). Kind of assay: Selectivity interaction (Reporter gene assay) EUB0002358a NR4A1. More on the design: recommended concentration 10 uM.
Assay [14] addresses T2, Alpha trans-inducing protein (Human alphaherpesvirus 1). As to the kind of experiment: Selectivity interaction (Reporter gene assay) EUB0002358a UL48. More on the design: recommended concentration 10 uM.
Assay [15] has as its target Lysine-specific histone demethylase 2 (Homo sapiens, UniProt Q8NB78). Kind of assay: Selectivity interaction (Proteomics) EUB0000269cCl KDM1B/LSD2. More on the design: recommended concentration 1 uM.
The target of assay [16] is Bromodomain-containing protein 4 (Homo sapiens, UniProt O60885). Kind of assay: Selectivity interaction (Proteomics) EUB0000269cCl BRD4. More on the design: recommended concentration 1 uM.
Assay [17] concerns the target T5, Bromodomain-containing protein 9 (Homo sapiens, UniProt Q9H8M2).
T5 sequence (Q9H8M2 whole entry): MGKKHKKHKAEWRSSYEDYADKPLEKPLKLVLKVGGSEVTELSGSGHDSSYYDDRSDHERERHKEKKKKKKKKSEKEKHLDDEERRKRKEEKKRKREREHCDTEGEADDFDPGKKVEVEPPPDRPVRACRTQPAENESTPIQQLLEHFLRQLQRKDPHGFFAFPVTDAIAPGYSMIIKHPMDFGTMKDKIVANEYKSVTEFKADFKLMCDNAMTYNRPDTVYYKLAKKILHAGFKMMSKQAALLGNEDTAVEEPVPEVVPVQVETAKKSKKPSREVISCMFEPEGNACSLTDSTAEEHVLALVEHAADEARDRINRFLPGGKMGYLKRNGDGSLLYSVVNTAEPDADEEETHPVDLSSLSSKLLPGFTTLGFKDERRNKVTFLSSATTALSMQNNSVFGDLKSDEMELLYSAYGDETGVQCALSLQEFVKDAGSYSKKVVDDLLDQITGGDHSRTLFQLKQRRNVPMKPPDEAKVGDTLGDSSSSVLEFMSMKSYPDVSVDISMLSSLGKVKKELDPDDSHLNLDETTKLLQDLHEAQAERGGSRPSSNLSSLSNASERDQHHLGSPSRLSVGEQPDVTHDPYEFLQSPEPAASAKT
Kind of assay: (§1) Selectivity interaction (Bromodomain panel) EUB0000233b BRD9. More on the design: recommended concentration 1 uM.

Assay [18] addresses T5, Bromodomain-containing protein 9. Described as §1. More on the design: recommended concentration 1 uM. This is another data set of the same source.
Assay [19] shares this target. The assay is described as §1. More on the design: recommended concentration 1 uM. The source holds these as a separate data set.

Bounds are passed on as bounds.

Sequence of Nuclear receptor subfamily 4immunitygroup A member 1 (Homo sapiens) (P22736 whole entry): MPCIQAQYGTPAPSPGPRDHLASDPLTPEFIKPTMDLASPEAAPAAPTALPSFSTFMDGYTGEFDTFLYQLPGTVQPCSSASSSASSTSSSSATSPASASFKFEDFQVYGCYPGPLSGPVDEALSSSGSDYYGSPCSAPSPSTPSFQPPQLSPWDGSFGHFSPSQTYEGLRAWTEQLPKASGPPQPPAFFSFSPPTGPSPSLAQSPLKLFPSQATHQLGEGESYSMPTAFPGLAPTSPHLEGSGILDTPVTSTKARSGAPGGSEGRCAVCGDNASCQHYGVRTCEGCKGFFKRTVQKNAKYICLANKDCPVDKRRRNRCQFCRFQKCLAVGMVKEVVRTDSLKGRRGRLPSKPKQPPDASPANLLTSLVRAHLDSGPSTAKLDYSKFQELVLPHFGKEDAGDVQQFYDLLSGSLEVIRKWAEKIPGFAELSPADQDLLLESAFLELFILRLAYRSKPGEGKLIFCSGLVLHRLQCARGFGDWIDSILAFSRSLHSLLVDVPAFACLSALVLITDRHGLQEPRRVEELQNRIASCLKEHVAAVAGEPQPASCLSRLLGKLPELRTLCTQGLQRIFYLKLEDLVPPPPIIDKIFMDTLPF
Sequence of Nuclear receptor subfamily 2 group E member 1 (Homo sapiens) (Q9Y466 whole entry): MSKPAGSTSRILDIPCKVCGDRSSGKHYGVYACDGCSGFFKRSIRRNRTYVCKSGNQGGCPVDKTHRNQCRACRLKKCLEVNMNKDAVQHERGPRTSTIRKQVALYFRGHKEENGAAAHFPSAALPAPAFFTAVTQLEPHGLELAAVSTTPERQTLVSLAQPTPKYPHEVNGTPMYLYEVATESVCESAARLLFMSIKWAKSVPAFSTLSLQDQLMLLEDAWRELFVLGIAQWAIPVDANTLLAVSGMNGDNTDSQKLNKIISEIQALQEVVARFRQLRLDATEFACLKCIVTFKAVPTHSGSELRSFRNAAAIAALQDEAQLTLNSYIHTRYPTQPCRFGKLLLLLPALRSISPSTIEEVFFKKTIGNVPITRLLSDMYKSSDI
Sequence of Steroidogenic factor 1 (Homo sapiens) (Q13285 whole entry): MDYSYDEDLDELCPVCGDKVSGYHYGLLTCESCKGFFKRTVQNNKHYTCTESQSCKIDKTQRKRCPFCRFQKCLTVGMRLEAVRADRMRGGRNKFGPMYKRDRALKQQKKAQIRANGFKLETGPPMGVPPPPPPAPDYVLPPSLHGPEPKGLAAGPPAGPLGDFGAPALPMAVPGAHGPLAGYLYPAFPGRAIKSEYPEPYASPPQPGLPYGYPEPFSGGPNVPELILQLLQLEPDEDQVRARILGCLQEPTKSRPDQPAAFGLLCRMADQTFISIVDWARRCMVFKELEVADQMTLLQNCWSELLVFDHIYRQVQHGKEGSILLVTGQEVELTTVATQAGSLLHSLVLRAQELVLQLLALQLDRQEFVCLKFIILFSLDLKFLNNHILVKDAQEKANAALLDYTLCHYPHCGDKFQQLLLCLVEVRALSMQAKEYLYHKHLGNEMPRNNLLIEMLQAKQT
T2 sequence (A0A5J6DW59 as listed by the source): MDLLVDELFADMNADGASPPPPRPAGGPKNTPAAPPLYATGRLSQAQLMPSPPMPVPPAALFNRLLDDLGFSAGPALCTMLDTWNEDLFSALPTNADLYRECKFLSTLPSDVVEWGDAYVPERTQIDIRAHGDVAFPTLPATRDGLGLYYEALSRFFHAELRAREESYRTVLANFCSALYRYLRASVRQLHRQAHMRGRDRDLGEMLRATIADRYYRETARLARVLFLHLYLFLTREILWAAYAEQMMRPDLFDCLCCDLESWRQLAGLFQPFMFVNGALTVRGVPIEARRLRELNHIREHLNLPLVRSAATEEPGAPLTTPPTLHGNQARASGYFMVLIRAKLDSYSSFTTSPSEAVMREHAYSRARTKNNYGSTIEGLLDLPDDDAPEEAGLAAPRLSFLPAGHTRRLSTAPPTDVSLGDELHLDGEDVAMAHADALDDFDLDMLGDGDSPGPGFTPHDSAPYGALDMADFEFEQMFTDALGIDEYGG
Sequence of Lysine-specific histone demethylase 2 (Q8NB78 whole entry): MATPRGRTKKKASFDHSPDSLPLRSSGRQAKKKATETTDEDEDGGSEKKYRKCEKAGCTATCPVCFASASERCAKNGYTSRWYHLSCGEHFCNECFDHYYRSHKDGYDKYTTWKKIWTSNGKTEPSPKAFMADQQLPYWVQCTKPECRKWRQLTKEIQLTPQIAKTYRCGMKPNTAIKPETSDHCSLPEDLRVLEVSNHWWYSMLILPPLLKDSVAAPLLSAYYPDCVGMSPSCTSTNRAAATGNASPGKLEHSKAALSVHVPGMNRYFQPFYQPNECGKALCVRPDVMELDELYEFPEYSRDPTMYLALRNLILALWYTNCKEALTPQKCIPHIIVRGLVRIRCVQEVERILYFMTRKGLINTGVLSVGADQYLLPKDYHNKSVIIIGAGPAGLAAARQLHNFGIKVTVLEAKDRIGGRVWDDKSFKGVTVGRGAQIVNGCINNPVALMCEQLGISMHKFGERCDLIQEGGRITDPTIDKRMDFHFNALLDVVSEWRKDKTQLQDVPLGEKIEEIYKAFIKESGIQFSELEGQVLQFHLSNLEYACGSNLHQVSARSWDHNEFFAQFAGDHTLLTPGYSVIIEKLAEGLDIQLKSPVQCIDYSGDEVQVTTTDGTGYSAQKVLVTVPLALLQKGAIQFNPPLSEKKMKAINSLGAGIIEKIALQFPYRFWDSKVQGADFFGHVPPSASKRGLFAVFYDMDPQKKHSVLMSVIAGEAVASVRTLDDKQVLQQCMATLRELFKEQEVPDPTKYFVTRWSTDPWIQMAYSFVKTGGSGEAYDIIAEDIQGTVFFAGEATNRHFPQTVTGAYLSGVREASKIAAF

Regarding `CC(C)c1c(CN(C)C(C)Cc2ccccc2)n(C)n(-c2ccccc2)c1=O` (centres undefined), the Fold activation was determined as 1.13 in assay [1], 1.15 in [4] and 1.12 in assay [7]. The same compound came in with a P-value in [2] of 0.00161. In addition, in [3], the Relative activation came out at 0.69%. Further, the Remaining activity in [5] was 0.96; in assay [6], 0.769.

With `O=c1[nH]c2ccccc2n1CCCN1CCN(C(c2ccccc2)c2ccccc2)CC1`, the Fold activation turned out to be 0.661 in assay [8], 0.803 in assay [9], 0.736 in assay [12] and 1.16 in [13]. Besides, the Remaining activity in assay [10] came to 1.07. Moreover, the Relative activation in [11] worked out at 0.76%. The P-value in assay [14] was 6e-08.

With `Cc1cc(CN)cc(C)c1-c1ncn(C)c1-c1ccnc2cc(F)ccc12`, the IC50 – broadly, the point on the concentration scale where inhibition reaches its midpoint – in assay [15] is > 100 µM; in assay [16] it was > 1000 µM.

For `CN(C)CCCOc1ccc(-c2cc(NCCCn3cccn3)nc(S(C)(=O)=O)n2)cc1`, the IC50 in assay [17], in assay [18] and in assay [19] was 1.4 µM in each case.

The record behind these values is ChEMBL document CHEMBL5715260, “Selectivity Literature for EUbOPEN Chemogenomic Library” (2024).
